Data reported in ChEMBL document CHEMBL1201862, “PubChem BioAssay data set” (2004).
Blank lines part the entries; values can stand above or below the compound they belong to. Activity calls are given as the source filed them.

Tests used:
[1] = biological target: Insulin-like growth factor 1 receptor (Homo sapiens, UniProt P08069); experiment: Navigating the Kinome. Panel member name: IGF1R; assay type: functional
[2] = biological target: Mitogen-activated protein kinase 8 (Homo sapiens, UniProt P45983); assay type: functional;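 also: value comes from one member of a kinome-wide kinase profiling panel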
[3] = biological target: Tyrosine-protein kinase Lck (Homo sapiens, UniProt P06239); assay type: functional;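 also: lck was assayed as one member of a kinase panel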
[4] = biological target: cAMP-dependent protein kinase catalytic subunit PRKX (Homo sapiens, UniProt P51817); assay type: functional
cAMP-dependent protein kinase catalytic subunit PRKX, sequence (P51817 whole entry): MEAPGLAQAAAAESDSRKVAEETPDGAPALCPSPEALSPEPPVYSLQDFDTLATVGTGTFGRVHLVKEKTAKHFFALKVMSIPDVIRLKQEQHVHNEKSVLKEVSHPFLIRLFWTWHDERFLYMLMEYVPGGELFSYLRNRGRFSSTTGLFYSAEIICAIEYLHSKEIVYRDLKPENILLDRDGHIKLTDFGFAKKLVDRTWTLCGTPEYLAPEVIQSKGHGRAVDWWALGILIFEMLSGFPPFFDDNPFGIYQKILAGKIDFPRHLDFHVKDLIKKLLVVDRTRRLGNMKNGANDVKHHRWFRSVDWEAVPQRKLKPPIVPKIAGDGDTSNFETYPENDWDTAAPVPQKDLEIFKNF

[5] = biological target: Tyrosine-protein kinase Fyn (Homo sapiens, UniProt P06241); assay type: functional
Tyrosine-protein kinase Fyn, sequence (P06241 whole entry): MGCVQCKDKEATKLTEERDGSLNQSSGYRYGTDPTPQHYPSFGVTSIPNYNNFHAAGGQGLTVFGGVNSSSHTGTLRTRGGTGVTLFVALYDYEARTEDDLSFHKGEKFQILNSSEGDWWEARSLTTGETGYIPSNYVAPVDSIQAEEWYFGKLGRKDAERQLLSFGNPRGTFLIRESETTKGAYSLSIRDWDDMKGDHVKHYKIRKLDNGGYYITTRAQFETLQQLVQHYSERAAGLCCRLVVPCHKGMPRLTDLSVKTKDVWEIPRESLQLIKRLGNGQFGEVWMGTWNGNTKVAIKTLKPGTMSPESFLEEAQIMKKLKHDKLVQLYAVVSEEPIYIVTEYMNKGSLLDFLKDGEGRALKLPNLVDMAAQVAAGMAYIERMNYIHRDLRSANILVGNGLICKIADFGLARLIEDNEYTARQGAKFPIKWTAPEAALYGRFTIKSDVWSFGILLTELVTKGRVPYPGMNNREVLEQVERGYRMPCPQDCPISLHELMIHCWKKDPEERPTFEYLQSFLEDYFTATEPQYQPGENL

[6] = biological target: Dual specificity protein kinase CLK2 (Homo sapiens, UniProt P49760); assay type: functional
Dual specificity protein kinase CLK2, sequence (P49760 whole entry): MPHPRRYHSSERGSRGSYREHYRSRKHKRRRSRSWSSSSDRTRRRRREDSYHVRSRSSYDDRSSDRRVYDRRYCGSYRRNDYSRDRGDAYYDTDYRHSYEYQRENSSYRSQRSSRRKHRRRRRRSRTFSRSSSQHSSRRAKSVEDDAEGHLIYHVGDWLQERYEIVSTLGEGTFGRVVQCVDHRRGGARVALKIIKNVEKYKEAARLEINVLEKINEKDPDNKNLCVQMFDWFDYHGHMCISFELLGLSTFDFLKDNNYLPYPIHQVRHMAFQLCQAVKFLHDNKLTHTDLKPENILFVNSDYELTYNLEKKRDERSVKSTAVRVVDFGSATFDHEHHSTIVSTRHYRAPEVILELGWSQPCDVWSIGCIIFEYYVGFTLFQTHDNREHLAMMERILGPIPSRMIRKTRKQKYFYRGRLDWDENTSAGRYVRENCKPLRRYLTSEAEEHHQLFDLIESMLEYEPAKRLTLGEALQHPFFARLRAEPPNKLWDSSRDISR

[7] = biological target: Activated CDC42 kinase 1 (Homo sapiens, UniProt Q07912); experiment: Navigating the Kinome. Panel member name: ACK1; assay type: functional
Activated CDC42 kinase 1, sequence (Q07912 whole entry): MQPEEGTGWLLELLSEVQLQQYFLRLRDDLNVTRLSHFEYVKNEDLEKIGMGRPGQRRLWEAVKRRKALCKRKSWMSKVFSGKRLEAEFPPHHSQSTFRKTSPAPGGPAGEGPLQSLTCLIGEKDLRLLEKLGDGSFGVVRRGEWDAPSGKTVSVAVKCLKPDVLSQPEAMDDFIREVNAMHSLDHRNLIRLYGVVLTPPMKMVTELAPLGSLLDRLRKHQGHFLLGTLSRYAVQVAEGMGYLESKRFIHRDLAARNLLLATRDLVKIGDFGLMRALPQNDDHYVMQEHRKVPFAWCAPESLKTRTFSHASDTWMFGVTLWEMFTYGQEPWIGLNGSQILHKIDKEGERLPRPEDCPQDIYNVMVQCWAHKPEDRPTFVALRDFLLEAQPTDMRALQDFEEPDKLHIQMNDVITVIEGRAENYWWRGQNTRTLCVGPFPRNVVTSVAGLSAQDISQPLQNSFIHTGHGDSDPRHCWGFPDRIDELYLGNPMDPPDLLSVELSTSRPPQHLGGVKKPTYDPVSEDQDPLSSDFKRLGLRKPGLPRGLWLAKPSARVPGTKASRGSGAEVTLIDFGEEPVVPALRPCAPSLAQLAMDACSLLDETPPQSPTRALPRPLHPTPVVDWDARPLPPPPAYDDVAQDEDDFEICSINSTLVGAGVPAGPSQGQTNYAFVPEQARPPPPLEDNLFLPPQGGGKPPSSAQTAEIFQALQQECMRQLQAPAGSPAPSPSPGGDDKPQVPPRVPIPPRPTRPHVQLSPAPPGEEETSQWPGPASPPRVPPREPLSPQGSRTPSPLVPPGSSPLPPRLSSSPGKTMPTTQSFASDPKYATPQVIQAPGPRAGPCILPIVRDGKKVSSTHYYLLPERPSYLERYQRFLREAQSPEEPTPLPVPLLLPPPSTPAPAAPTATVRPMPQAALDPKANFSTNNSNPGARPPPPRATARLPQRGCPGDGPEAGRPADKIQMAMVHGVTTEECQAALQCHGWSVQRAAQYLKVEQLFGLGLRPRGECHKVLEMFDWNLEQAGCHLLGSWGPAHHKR

[8] = biological target: T1, SUMO-activating enzyme (Homo sapiens, UniProt Q9UBT2); experiment: blockers of SAE1/SAE2–UBC9 SUMO transfer – biochemical, HTRF, uHTS, primary screen (AID 2006); assay type: protein-complex assay
T1 sequence (Q9UBE0 whole entry): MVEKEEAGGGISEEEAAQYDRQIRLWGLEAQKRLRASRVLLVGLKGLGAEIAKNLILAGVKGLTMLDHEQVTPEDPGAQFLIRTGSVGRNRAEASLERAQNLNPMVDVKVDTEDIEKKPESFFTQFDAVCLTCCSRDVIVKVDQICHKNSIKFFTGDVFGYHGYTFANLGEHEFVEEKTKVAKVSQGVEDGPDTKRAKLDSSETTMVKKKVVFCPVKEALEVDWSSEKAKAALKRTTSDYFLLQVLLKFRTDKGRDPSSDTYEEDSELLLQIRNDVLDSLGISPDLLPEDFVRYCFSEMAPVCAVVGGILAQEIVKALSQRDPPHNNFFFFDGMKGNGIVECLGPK
T1 sequence (Q9UBT2 whole entry): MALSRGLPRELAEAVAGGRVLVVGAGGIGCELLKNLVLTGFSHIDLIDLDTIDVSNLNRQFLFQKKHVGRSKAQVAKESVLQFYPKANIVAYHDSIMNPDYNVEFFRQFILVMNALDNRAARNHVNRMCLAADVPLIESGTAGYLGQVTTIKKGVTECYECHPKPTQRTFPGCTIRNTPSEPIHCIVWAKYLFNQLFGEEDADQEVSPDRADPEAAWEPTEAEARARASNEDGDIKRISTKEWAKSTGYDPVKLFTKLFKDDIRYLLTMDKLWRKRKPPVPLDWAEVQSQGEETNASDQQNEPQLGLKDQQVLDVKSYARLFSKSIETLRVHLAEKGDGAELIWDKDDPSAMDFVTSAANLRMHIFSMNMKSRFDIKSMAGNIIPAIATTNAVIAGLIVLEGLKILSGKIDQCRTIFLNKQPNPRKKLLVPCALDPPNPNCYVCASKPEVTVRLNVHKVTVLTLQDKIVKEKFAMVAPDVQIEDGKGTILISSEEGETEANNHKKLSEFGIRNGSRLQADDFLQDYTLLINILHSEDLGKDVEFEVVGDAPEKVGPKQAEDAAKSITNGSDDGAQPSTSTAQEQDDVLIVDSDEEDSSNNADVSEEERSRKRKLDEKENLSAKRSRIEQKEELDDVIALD

[9] = biological target: T1, SUMO-activating enzyme; experiment: blockers of UBC9-mediated SUMO conjugation – biochemical, AlphaScreen, SUMOylation inhibitor project, confirmation (AID 2018); assay type: functional
[10] = biological target: T2, Caspase-3 (Homo sapiens, UniProt P42574); experiment: SAR Analysis of small molecule inhibitors of Sentrin-specific proteases (SENPs) using a Caspase-3 Selectivity assay. [Related pubchem assays (depositor defined):AID2540, AID2599, AID434973, AID489001]; assay type: functional
T2 sequence (P42574 whole entry): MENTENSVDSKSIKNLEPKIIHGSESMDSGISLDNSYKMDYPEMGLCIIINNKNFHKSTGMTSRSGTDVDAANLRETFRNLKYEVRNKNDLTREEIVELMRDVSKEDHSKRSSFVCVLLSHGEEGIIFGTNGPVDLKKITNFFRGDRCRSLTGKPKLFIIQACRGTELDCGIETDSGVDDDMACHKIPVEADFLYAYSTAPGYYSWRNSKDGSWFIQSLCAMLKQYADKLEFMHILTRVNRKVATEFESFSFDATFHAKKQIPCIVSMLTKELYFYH

[11] = biological target: T3, Sentrin-specific protease 8 (Homo sapiens, UniProt Q96LD8); experiment: inhibition of human SENP8 cleavage activity – biochemical, luminescence, SAR follow-up (AID 504501); assay type: functional
T3 sequence (Q96LD8 whole entry): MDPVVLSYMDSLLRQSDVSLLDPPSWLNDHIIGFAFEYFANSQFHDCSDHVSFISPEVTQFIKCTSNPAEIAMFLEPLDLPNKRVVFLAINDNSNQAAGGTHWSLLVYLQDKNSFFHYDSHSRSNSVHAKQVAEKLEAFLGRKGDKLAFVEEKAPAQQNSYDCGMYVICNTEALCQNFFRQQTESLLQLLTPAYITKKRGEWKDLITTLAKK

[12] = biological target: T4, Sentrin-specific protease 7 (Homo sapiens, UniProt Q9BQF6); experiment: inhibition of human SENP7 cleavage activity – biochemical, luminescence, SAR follow-up (AID 504497); assay type: functional
T4 sequence (Q9BQF6 whole entry): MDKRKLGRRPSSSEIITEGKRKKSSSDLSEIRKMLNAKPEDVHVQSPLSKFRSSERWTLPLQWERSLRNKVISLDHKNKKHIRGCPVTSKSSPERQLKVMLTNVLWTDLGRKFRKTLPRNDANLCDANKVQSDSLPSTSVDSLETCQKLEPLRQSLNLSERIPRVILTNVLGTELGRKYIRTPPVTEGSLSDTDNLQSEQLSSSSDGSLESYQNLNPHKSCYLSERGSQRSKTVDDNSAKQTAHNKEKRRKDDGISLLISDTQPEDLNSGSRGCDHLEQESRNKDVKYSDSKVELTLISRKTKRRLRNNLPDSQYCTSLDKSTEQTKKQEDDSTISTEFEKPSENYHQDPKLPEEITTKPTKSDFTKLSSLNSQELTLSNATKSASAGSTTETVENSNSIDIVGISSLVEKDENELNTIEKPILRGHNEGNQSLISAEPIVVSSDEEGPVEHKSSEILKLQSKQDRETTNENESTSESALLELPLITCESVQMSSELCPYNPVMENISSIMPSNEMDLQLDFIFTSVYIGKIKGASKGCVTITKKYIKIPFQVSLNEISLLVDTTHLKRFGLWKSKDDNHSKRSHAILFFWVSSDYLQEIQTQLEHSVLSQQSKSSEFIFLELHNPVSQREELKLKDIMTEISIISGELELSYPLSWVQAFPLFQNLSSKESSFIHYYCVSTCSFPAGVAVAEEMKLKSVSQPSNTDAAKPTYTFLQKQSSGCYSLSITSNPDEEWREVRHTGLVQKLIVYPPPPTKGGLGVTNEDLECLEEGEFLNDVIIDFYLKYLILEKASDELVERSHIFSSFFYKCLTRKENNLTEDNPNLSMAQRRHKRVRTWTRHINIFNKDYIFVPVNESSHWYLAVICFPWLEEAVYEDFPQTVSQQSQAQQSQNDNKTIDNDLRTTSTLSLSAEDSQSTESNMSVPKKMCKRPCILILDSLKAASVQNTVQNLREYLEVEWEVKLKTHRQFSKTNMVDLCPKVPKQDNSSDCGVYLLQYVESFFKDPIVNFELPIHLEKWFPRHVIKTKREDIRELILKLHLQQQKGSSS

[13] = system: INS1; experiment: INS-1E survival protection against cytokine death – cell-based, luminescence, retest, dose response (AID 449756); assay type: functional; details: Rattus norvegicus;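 also: cell death triggered by IL-1 beta plus TNF-alpha plus IFN-gamma mixture; protective hits raise ATP signal compared with cytokine alone wells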

Insulin-like growth factor 1 receptor, sequence (P08069 31-736 limits assumed): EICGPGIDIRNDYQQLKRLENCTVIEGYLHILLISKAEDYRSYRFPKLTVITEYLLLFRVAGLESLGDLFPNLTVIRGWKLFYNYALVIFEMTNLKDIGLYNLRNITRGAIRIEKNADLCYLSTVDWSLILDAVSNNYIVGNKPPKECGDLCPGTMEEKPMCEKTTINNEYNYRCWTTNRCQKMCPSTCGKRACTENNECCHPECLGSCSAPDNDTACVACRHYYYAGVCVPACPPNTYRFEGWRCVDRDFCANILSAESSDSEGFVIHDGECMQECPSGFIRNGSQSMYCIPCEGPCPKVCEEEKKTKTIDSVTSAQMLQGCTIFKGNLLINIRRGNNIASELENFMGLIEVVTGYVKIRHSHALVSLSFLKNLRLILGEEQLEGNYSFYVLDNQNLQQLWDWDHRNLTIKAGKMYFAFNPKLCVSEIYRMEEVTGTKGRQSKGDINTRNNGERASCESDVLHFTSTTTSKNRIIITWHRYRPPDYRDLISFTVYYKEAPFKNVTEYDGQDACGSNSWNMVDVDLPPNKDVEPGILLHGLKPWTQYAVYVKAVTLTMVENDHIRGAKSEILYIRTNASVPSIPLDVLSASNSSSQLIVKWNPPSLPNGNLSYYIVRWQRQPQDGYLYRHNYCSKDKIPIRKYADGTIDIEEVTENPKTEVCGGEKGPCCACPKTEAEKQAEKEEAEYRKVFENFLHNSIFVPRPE
Insulin-like growth factor 1 receptor, sequence (P08069 741-1367 limits assumed): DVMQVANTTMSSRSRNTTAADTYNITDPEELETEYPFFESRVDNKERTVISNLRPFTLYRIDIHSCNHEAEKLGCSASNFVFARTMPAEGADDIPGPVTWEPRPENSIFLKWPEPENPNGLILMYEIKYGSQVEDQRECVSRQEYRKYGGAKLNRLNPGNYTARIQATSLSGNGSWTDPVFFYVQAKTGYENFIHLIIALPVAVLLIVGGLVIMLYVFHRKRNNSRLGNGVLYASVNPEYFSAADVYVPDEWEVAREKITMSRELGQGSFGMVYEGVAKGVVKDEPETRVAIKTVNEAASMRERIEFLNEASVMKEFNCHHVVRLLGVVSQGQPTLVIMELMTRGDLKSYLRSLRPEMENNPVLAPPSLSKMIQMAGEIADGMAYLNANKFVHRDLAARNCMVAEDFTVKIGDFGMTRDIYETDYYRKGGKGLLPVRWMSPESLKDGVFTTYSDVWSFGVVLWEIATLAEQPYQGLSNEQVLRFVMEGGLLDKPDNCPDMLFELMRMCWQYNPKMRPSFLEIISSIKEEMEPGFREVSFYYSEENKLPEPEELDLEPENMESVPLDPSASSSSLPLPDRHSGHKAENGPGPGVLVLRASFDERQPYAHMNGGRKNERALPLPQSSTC

SMILES: Oc1nc(Nc2ccc(F)cc2)cc2ccccc12
IC50 [8]: 3.38 µM (active)
IC50 [9]: 1.12 µM (active)

SMILES: CCN(CC)CCOc1ccc2c(c1)C(=NNC(=O)c1ccccn1)c1cc(OCCN(CC)CC)ccc1-2
AC50 [13]: 2.97 µM (active)

SMILES: O=C(NC1=C(Nc2ccc(F)cc2)C(=O)c2ccccc2C1=O)c1ccc(Cl)cc1
AC50 [13]: 5.26 µM (active)

Now from value to compound, other results behind:

Ki [1]: 1 µM (active)
Ki [2]: 1.26 µM (active)
Ki [3]: 0.251 µM (active)
Ki [4]: 0.0398 µM (active)
Ki [5]: 0.398 µM (active)
Ki [6]: 0.000794 µM (active)
Ki [7]: 1.58 µM (active)
SMILES: NC(COc1cncc(-c2ccc3c(c2)C(=Cc2ccc[nH]2)C(=O)N3)c1)Cc1ccccc1 (stereo unspecified)

IC50 [10]: > 99 µM (inactive)
IC50 [12]: 67.6 µM (active)
SMILES: COc1cc2cc(NC(C)=O)cc(NCc3ccccc3)c2cc1OC
IC50 [11]: > 99 µM (inactive)

Ki [1]: > 2.51 µM (inactive)
Ki [2]: > 5.01 µM (inactive)
Ki [3]: 1 µM (active)
Ki [4]: 2 µM (active)
Ki [5]: > 6.31 µM (inactive)
Ki [6]: > 3.98 µM (inactive)
Ki [7]: > 3.98 µM (inactive)
SMILES: O=C1Nc2cc(-c3ccc(O)cc3)ccc2C1=Cc1ccc[nH]1

IC50 [10]: 79.3 µM (active)
IC50 [8]: 15.5 µM (active)
IC50 [9]: 1.6 µM (active)
IC50 [12]: 16.2 µM (active)
SMILES: CN(C)c1cc(N/N=C\c2ccccc2)nc(N(C)C)n1
IC50 [11]: 31.7 µM (active)
